Structures can show the parent of a compound that is named as a salt.
How the values were obtained:
Assay type in all cases: in vivo
neurotoxicity (rotarod) = assay: Neurotoxicity test (TOX), rotarod, mice
Protocol: (§1) In order to define anticonvulsant activity, screening tests were performed, using animal models of seizures. […] Each substance (after dissolving in methylcellulose) was normally tested in doses 30, 100, and 300 mg/kg body weight (b.w.) (mice) or in 30 and 50 mg/kg b.w. (rats) in two possible routes of administration: intraperitoneal (i.p.) or oral (p.o.). Appropriate tests were performed 0.5 and 4 h after administration of the compound. […] (mice) the tests were also performed in doses 10 and 3 mg/kg b.w.
It is performed with use of rotarod test. The animal is placed on a plastic rod (1 inch in diameter), rotating 6 rpm. The rod is placed on a level discouraging the animal to jump off. […] Neurotoxicity is stated if the animal cannot stay on the rod for 1 min. in any of 3 trials. Normally the test is performed in dose 30 mg/kg b.w. in 4 mice (0.5 h) and in 2 mice (4 h), in the dose 100 mg/kg b.w. in 8 mice (0.5 h) and in 4 mice (4 h) and in the dose 300 mg/kg b.w. in 4 mice (0.5 h) and 2 mice (4 h).

[1] = test system: pentylenetetrazol-induced seizures; assay: Subcutaneous Metrazol Test (ScMet), mice
Protocol: In order to define anticonvulsant activity, screening tests were performed, using animal models of seizures. […] The tests were based on administration of a compound to an animal and after certain time inducing state similar to epilepsy attack in human. Each substance (after dissolving in methylcellulose) was normally tested in doses 30, 100, and 300 mg/kg body weight (b.w.) (mice) or in 30 and 50 mg/kg b.w. (rats) in two possible routes of administration: intraperitoneal (i.p.) or oral (p.o.). Appropriate tests were performed 0.5 and 4 h after administration of the compound. […] (mice) the tests were also performed in doses 10 and 3 mg/kg b.w.
Subcutaneous Metrazol Test (ScMet) is a chemical test, where compounds are tested for activity in absence seizures (petit mal epilepsy). Pentetrazol (metrazol) is considered to block chloride channel in the GABAA receptor complex, therefore at a certain dose in animals it causes myoclonic jerks, next—clonic seizures, and then tonic seizures. The procedure consists in administration of a tested compound and after 0.5 or 4 h subcutaneous administration of pentylenetetrazol in the dose of 85 mg/kg b.w. (mice) or 70 mg/kg b.w. (rats) in a 0.85% solution in 0.9% NaCl. […] Normally the test is performed in single animals.

[2] = test system: maximal electroshock seizures; assay: Maximum Electroshock Seizure (MES) test, mice; conditions: for MES, No. of protected animals/No. of used animals: mice
Protocol: as §1
Maximum Electroshock Seizure (MES) test is an electric test, verifying activity towards generalized tonic-clonic seizures (grand mal epilepsy). […] Its procedure consists in administration to an animal a mentioned dose, and after 0.5 or 4 h attaching corneal electrodes (after anesthetic eye-drops: 0.5% tetracaine hydrochloride in 0.9% NaCl) and turning on electric current (60 Hz, 0.2 s, 50 mA (mice) or 150 mA (rats)). […] Normally, in the dose 30 mg/kg b.w. the test is done in 1 mouse after 0.5 or 4 h, in the dose 100 mg/kg b.w.—in 3 mice, and in the dose 300 mg/kg b.w.—in 1 mouse.

[3] = mice, dose 100 mg/kg b.w., time 0.5 h
[4] = mice, dose 100 mg/kg b.w., time 4 h
[5] = mice, dose 300 mg/kg b.w., time 0.5 h
[6] = dose 100 mg/kg b.w., time 0.5 h
[7] = mice, dose 30 mg/kg b.w., time 0.5 h
[8] = dose 300 mg/kg b.w., time 0.5 h
[9] = mice, dose 100 mg/kg b.w., 0.5 h
[10] = mice, dose 300 mg/kg b.w., 0.5 h
[11] = Mus musculus, 0.5 h, read-out: MES, No. of protected animals/No. of used animals

Structure (SMILES): CCC(O)CNCCCOc1c(C)cccc1C (racemic) [Compound 54, R,S-1N-[(2,6-dimethylphenoxy)propyl]amino-2-butanol]
- TOX, No. of animals exhibiting motor impairment/no. of used animals (neurotoxicity (rotarod); mouse, in vivo, 30 mg/kg): 1/4
- TOX, No. of animals exhibiting motor impairment/no. of used animals (neurotoxicity (rotarod); mouse, in vivo, 300 mg/kg): 4/4
- ScMet, No. of protected animals/No. of used animals ([1]; dose 30 mg/kg b.w., 0.5 h): 1/5
- ScMet, No. of protected animals/No. of used animals ([1]; dose 30 mg/kg b.w., 4 h): 1/1
- MES, No. of protected animals/No. of used animals ([2]; dose 100 mg/kg b.w., 0.5 h): 2/2

Structure (SMILES): Cc1cccc(OCCNCC(O)c2ccccc2)c1C (stereo not drawn) [Compound 4, R,S-2N-[(2,3-dimethylphenoxy)ethyl]amino-1-phenylethanol]
- TOX, No. of animals exhibiting motor impairment/no. of used animals (neurotoxicity (rotarod); [3]): 4/8
- TOX, No. of animals exhibiting motor impairment/no. of used animals (neurotoxicity (rotarod); [4]): 1/4
- TOX, No. of animals exhibiting motor impairment/no. of used animals (neurotoxicity (rotarod); [5]): 3/4
- ScMet, No. of protected animals/No. of used animals ([1]; dose 30 mg/kg b.w., time 0.5 h): 1/5

Structure (SMILES): CC[C@@H](CO)NCCOc1cc(C)cc(C)c1C [Compound 41, S-(+)-2N-[(2,3,5-trimethylphenoxy)ethyl]amino-1-butanol]
- TOX, No. of animals exhibiting motor impairment/no. of used animals (neurotoxicity (rotarod); mouse, in vivo, 30 mg/kg): 3/4
- TOX, No. of animals exhibiting motor impairment/no. of used animals (neurotoxicity (rotarod); mouse, in vivo, 100 mg/kg): 7/8
- TOX, No. of animals exhibiting motor impairment/no. of used animals (neurotoxicity (rotarod); mouse, in vivo, 300 mg/kg): 4/4
- MES, No. of protected animals/No. of used animals ([2]; dose 30 mg/kg b.w., time 0.5 h): 1/1
- MES, No. of protected animals/No. of used animals [2, 6]: 3/3

Structure (SMILES): Cc1cc(C)c(C)c(OCCNCC(O)c2ccccc2)c1.Cl (stereo not drawn) [Compound 42, R,S-2N-[(2,3,5-trimethylphenoxy)ethyl]amino-1-phenylethanol hydrochloride]
- TOX, No. of animals exhibiting motor impairment/no. of used animals (neurotoxicity (rotarod); [7]): 3/4
- TOX, No. of animals exhibiting motor impairment/no. of used animals (neurotoxicity (rotarod); mice, dose 30 mg/kg b.w., time 4 h): 1/2
- TOX, No. of animals exhibiting motor impairment/no. of used animals (neurotoxicity (rotarod); [3]): 8/8
- TOX, No. of animals exhibiting motor impairment/no. of used animals (neurotoxicity (rotarod); [4]): 4/4
- TOX, No. of animals exhibiting motor impairment/no. of used animals (neurotoxicity (rotarod); [5]): 4/4
- TOX, No. of animals exhibiting motor impairment/no. of used animals (neurotoxicity (rotarod); mice, dose 300 mg/kg b.w., time 4 h): 1/1
- MES, No. of protected animals/No. of used animals [2, 6]: 3/3
- MES, No. of protected animals/No. of used animals ([2]; dose 100 mg/kg b.w., time 4 h): 1/3
- MES, No. of protected animals/No. of used animals [2, 8]: 1/1

Structure (SMILES): Cc1cc(C)c(OCCN[C@H](C)CO)c(C)c1 [Compound 43, R-(−)-2N-[(2.4.6-trimethylphenoxy)ethyl]amino-1-propanol]
- TOX, No. of animals exhibiting motor impairment/no. of used animals (neurotoxicity (rotarod); [7]): 3/4
- TOX, No. of animals exhibiting motor impairment/no. of used animals (neurotoxicity (rotarod); [3]): 8/8
- TOX, No. of animals exhibiting motor impairment/no. of used animals (neurotoxicity (rotarod); [5]): 4/4
- MES, No. of protected animals/No. of used animals [2, 6]: 3/3

Structure (SMILES): Cc1cc(C)c(OCCNCC(O)c2ccccc2)c(C)c1 (stereo not drawn) [Compound 45, R,S-2N-[(2,4,6-trimethylphenoxy)ethyl]amino-1-phenylethanol]
- TOX, No. of animals exhibiting motor impairment/no. of used animals (neurotoxicity (rotarod); [5]): 3/4
- MES, No. of protected animals/No. of used animals [2, 6]: 3/3
- MES, No. of protected animals/No. of used animals [2, 8]: 1/1
- MES, No. of protected animals/No. of used animals ([2]; dose 300 mg/kg b.w., time 4 h): 1/1

Structure (SMILES): Cc1cccc(C)c1OCCCN[C@H](C)CO [Compound 52, R-(−)-2N-[(2,6-dimethylphenoxy)propyl]amino-1-propanol hydrochloride]
- TOX, No. of animals exhibiting motor impairment/no. of used animals (neurotoxicity (rotarod); mice, dose 10 mg/kg b.w., 0.5 h): 1/4
- TOX, No. of animals exhibiting motor impairment/no. of used animals (neurotoxicity (rotarod); [9]): 6/8
- TOX, No. of animals exhibiting motor impairment/no. of used animals (neurotoxicity (rotarod); mice, dose 100 mg/kg b.w., 4 h): 1/4
- TOX, No. of animals exhibiting motor impairment/no. of used animals (neurotoxicity (rotarod); [10]): 3/4
- responders at 30 mg/kg [2, 11]: 100%
- responders at 100 mg/kg [2, 11]: 66.7%
- responders at 300 mg/kg ([2]; Mus musculus, 4 h, read-out: MES, No. of protected animals/No. of used animals): 100%

Structure (SMILES): Cc1cccc(C)c1OCC(=O)N(C)CCO [Compound 59, R,S-2N-[(2,6-dimethylphenoxy)acetyl]-2N-methylamino-1-ethanol]
- ScMet, No. of protected animals/No. of used animals ([1]; dose 300 mg/kg b.w., 0.5 h): 1/1
- MES, No. of protected animals/No. of used animals ([2]; dose 300 mg/kg b.w., 0.5 h): 1/1

Structure (SMILES): Cc1cccc(C)c1OCC(=O)NC(C)CO (stereo not drawn) [Compound 60, R,S-2N-[(2,6-dimethylphenoxy)acetyl]amino-1-propanol]
- TOX, No. of animals exhibiting motor impairment/no. of used animals (neurotoxicity (rotarod); [9]): 2/8
- TOX, No. of animals exhibiting motor impairment/no. of used animals (neurotoxicity (rotarod); mice, dose 100 mg/kg b.w., 4 h): 2/4
- TOX, No. of animals exhibiting motor impairment/no. of used animals (neurotoxicity (rotarod); [10]): 4/4
- MES, No. of protected animals/No. of used animals ([2]; dose 300 mg/kg b.w., 0.5 h): 1/1

Structure (SMILES): Cc1cccc(C)c1OCC(=O)N[C@@H](C)CO [Compound 62, S-(−)-2N-[(2,6-dimethylphenoxy)acetyl]amino-1-propanol]
- TOX, No. of animals exhibiting motor impairment/no. of used animals (neurotoxicity (rotarod); mice, dose 30 mg/kg b.w., 0.5 h): 1/4
- TOX, No. of animals exhibiting motor impairment/no. of used animals (neurotoxicity (rotarod); [9]): 3/8
- TOX, No. of animals exhibiting motor impairment/no. of used animals (neurotoxicity (rotarod); mice, dose 100 mg/kg b.w., 4 h): 1/4
- TOX, No. of animals exhibiting motor impairment/no. of used animals (neurotoxicity (rotarod); [10]): 3/4
- TOX, No. of animals exhibiting motor impairment/no. of used animals (neurotoxicity (rotarod); mice, dose 300 mg/kg b.w., 4 h): 1/2
- MES, No. of protected animals/No. of used animals ([2]; dose 300 mg/kg b.w., 0.5 h): 1/1
- MES, No. of protected animals/No. of used animals ([2]; dose 300 mg/kg b.w., 4 h): 1/1
